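Method: 48-hour compound exposure of cells in 96-well plates, five concentrations, linear interpolation of endpoints. TGI is the concentration that stops growth completely.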
Experiments:
Assay in all cases: NCI anticancer screen, dose series, 48 h
A549 NSCLC = test system: A549 NSCLC
786-0 renal = test system: 786-0 renal
SF-295 CNS = test system: SF-295 CNS
CAKI-1 renal = test system: CAKI-1 renal
MDA-N = test system: MDA-N
A498 renal = test system: A498 renal
HL-60(TB) leukemia = test system: HL-60(TB) leukemia
NCI-H23 lung = test system: NCI-H23 lung
MALME-3M melanoma = test system: MALME-3M melanoma
NCI-H226 lung = test system: NCI-H226 lung
HCT-116 colon = test system: HCT-116 colon
NCI/ADR-RES ovarian = test system: NCI/ADR-RES ovarian
SR leukemia = test system: SR leukemia
PC-3 prostate = test system: PC-3 prostate
SK-MEL-28 melanoma = test system: SK-MEL-28 melanoma
SNB-75 CNS = test system: SNB-75 CNS
SW-620 colon = test system: SW-620 colon
SN12C renal = test system: SN12C renal
UACC-257 melanoma = test system: UACC-257 melanoma
SF-268 CNS = test system: SF-268 CNS
OVCAR-4 ovarian = test system: OVCAR-4 ovarian
UACC-62 melanoma = test system: UACC-62 melanoma
HCC-2998 colon = test system: HCC-2998 colon
MDA-MB-435 = test system: MDA-MB-435
RPMI-8226 leukemia = test system: RPMI-8226 leukemia
OVCAR-3 ovarian = test system: OVCAR-3 ovarian
M14 melanoma = test system: M14 melanoma
U251 CNS = test system: U251 CNS
HT29 colon = test system: HT29 colon
SK-OV-3 ovarian = test system: SK-OV-3 ovarian
NCI-H522 lung = test system: NCI-H522 lung
HS 578T breast = test system: HS 578T breast
HCT-15 colon = test system: HCT-15 colon
EKVX NSCLC = test system: EKVX NSCLC
SNB-19 CNS = test system: SNB-19 CNS
ACHN renal = test system: ACHN renal
MOLT-4 leukemia = test system: MOLT-4 leukemia
HOP-62 NSCLC = test system: HOP-62 NSCLC
UO-31 renal = test system: UO-31 renal
KM12 colon = test system: KM12 colon
SK-MEL-2 melanoma = test system: SK-MEL-2 melanoma
TK-10 renal = test system: TK-10 renal
RXF 393 renal = test system: RXF 393 renal
T-47D breast = test system: T-47D breast
IGROV1 ovarian = test system: IGROV1 ovarian
HOP-92 NSCLC = test system: HOP-92 NSCLC
BT-549 breast = test system: BT-549 breast
SF-539 CNS = test system: SF-539 CNS
OVCAR-5 ovarian = test system: OVCAR-5 ovarian
CCRF-CEM leukemia = test system: CCRF-CEM leukemia
MCF7 breast = test system: MCF7 breast
LOX IMVI melanoma = test system: LOX IMVI melanoma
SK-MEL-5 melanoma = test system: SK-MEL-5 melanoma
OVCAR-8 ovarian = test system: OVCAR-8 ovarian
MDA-MB-231 breast = test system: MDA-MB-231 breast
DU-145 prostate = test system: DU-145 prostate
COLO 205 colon = test system: COLO 205 colon
K-562 leukemia = test system: K-562 leukemia

Measured: TGI

COC(=O)C(=O)C(C(=O)OC)C(=O)C(=O)Nc1ccccc1C(N)=O (stereo not given)
not listed: DU-145 prostate | COLO 205 colon | K-562 leukemia
> 100 µM: all other assays above

O=c1[nH]nc(Cc2ccccc2)n1O
not listed: PC-3 prostate | SNB-75 CNS | HCC-2998 colon | M14 melanoma | HCT-15 colon | SK-MEL-2 melanoma | RXF 393 renal | OVCAR-5 ovarian
> 100 µM: all other assays above
